In patent publication US10351525B2, “Beta lactamase inhibitors” (Oxford University Innovation Limited, priority 2014, dated 2019):

How the values were obtained:
E. coli IR60 (NDM-1) = test: Meropenem MIC with and without inhibitor; type: cell-based, Escherichia coli
Experimental: (§1) Further studies were carried out to determine if ML302F/ML302 potentiates β-lactam antibiotic activity in clinically derived strains containing IMP-1, IMP-4, VIM-4 or NDM-1, which are the most commonly observed MBLs in clinical isolates. All strains producing MBLs were confirmed as resistant to meropenem at the Clinical and Laboratory Standards Institute (U.S.A.) defined breakpoint of 8 μg/mL for Enterobacteriace (see Table 2 below). The minimum inhibitory concentration (MIC) of meropenem against wildtype and MBL producing Escherichia coli and Klebsiella pneumoniae strains was determined with and without increasing concentrations of ML302 or ML302F. Clinical and Laboratory Standards Institute. 2012. Methods for dilution antimicrobial susceptibility tests for bacteria that grow aerobically; 9th ed. Approved standard M07-A9. CLSI, Wayne, Pa.; and Clinical and Laboratory Standards Institute. 2012. Performance standards for antimicrobial susceptibility testing; 22nd informational supplement M100-S22. CLSI, Wayne, Pa.

E. coli MG1655 (IMP-1) = test: Meropenem MIC with and without inhibitor; type: cell-based, Escherichia coli; conditions: for Meropenem MIC in the presence of inhibitor: E. coli MG1655 (IMP-1)
Experimental: as §1

[1] = test system: K. pneumoniae A34 (VIM-4); test: Meropenem MIC with and without inhibitor; type: cell-based, Klebsiella pneumoniae
Experimental: as §1

[2] = test system: K. pneumoniae B19 (IMP-4); test: Meropenem MIC with and without inhibitor; type: cell-based, Klebsiella pneumoniae
Experimental: as §1

[3] = test system: K. pneumoniae NCTC 5055 (IMP-1); test: Meropenem MIC with and without inhibitor; type: cell-based, Klebsiella pneumoniae; conditions: for Meropenem MIC in the presence of inhibitor: K. pneumoniae NCTC 5055 (IMP-1)
Experimental: as §1

PBP6 (dacC) from E. coli = PBP6 (dacC) from E. coli (Escherichia coli, UniProt P08506); test: Inhibition studies for penicillin binding proteins, PBP6; type: biochemical; conditions: for Inhibition verdict: 100 μM; for remaining activity at 100 µM: read-out: RA (residual activity); on Inhibition verdict: key: N.I.—not inhibited
Experimental: (§2) To investigate the selectivity of ML302/ML302F for bacterial MBLs, activity was tested against TEM-1 (a Class A SBL), PBP-5 (penicillin-binding protein 5 or dacA) and PBP-6 (penicillin-binding protein 6, or dacC) from E. coli, hHAT (human histone acetyltransferase) and hHDAC (human histone deacetylase). TEM-1, PBP-5 and -6 and hHAT are known to be inhibited by rhodanines. Selectively against hACE-2 (Angiotensin converting enzyme 2) and hHAGH (Hydroxyacylglutathione hydrolase, human Glyoxylase II) was also tested.
The inhibition analyses were performed using the method previously described for PBP-3 (van Berkel, S. S. et al. Binding of (5 S)-penicilloic acid to penicillin binding protein 3.ACS Chem. Biol. 8, 2112-2116 (2013)). In brief: ML302 and ML302F were initially screened at a single concentration (100 μM) in duplicate. Inhibition of the PBP acylation rate by the chromogenic β-lactam Nitrocefin was determined by pre-incubation of the appropriate amount of enzyme (dacA 2 μM and dacC 6.8 μM, respectively) and inhibitor in the assay buffer (50 mM HEPES-NaOH buffer (pH 7.2) supplemented with 200 mM NaCl and 0.01% Triton 100) for 10 min. at r.t. prior to the initiation of the assay by the addition of nitrocefin (100 μM final concentration). The hydrolysis of Nitrocefin was monitored by following the variation in absorbance at 492 nm using 96 well flat bottom plates (UV-STAR Microplate (655801) or Greiner Bio-One). The experiments were performed using a PHERAstar FS—BMG Labtech microplate reader (using path length correction) at r.t. (24-25° C.). All enzymes and inhibitors were prepared in the assay buffer.

hHDAC = test: Inhibition studies hHDAC; type: biochemical, human; on Inhibition verdict: key: N.I.—not inhibited
Experimental: as §2
(§3) The inhibition analyses for human histone acetyltransferases (HAT), HDAC hHDAC (human histone deacetylase), hACE-2 (Angiotensin converting enzyme 2) and hHAGH (Hydroxyacylglutathione hydrolase, human Glyoxylase II) were performed using the commercially available HAT Assay Kit (Active Motif, catalogue No. 56100 (2009)), hHDAC (Active Motif, catalogue No. 56200 (2013)), hACE-2 (ACE-2 (R&D Systems) and hHAGH ((R&D Systems).

hGlyoxylase II = molecular target: T1, hGlyoxylase II (Homo sapiens, UniProt Q16775); test: hHAGH (human Glyoxylase II) assay; type: biochemical; on Inhibition verdict: key: N.I.—not inhibited
T1 construct: purchased R&D Systems 5944-GO
Experimental: as §2, §3
• Assay Buffer: 50 mM Tris, 250 mM NaCl, pH 7.5 • Recombinant Human Glyoxalase II (rhGlyoxalase II) (Catalog #5944-GO) • Substrate: S-Lactoylglutathione (Sigma, Catalog # L7140), 100 mM stock in deionized water • 5, 5′-dithiobis(2-nitrobenzoic acid) (DTNB) (Sigma, Catalog # D8130), 10 mM stock in DMSO • 96-well Clear Plate (Costar, Catalog #92592) • Plate Reader (Model: SpectraMax Plus by Molecular Devices) or equivalent Assay: 1. Dilute rhGlyoxalase II to 0.4 ng/μL in Assay Buffer. 2. Dilute Substrate to 2 mM in Assay Buffer with 400 IJM DTNB to form Substrate Mixture. 3. Load 50 μL of 0.4 ng/μL rhGlyoxalase II into a plate and start the reaction by loading 50 μL of Substrate Mixture. Include a Substrate Blank containing 50 μL of Assay Buffer and 50 μL of Substrate Mixture. 4. Read at 405 nm (absorbance) in kinetic mode for 5 minutes. 5. Calculate specific activity:
[formula] [formula] [formula] [formula] Note: the output of many spectrophotometers is in mOD. Final Assay Conditions Per Well: rhGlyoxalase II: […] S-Lactoylglutathione: 1 mM DTNB: 200 μM

[4] = Klebsiella pneumoniae, read-out: Meropenem MIC in the absence of inhibitor

Chain of PBP6 (dacC) from E. coli (P08506 28-400): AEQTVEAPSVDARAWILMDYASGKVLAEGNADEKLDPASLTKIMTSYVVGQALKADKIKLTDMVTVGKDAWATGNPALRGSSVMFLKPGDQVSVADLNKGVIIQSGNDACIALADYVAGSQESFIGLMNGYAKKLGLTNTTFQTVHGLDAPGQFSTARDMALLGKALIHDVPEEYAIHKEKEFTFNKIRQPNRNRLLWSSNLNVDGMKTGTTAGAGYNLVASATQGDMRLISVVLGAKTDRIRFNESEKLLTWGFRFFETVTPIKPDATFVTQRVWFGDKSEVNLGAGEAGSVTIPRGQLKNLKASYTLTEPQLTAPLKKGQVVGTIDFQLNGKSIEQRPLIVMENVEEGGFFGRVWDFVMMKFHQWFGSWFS

Row | Compound | Meropenem MIC in the presence of inhibitor (E. coli IR60 (NDM-1); inhibitor 10 mg/L) | Meropenem MIC in the presence of inhibitor (E. coli IR60 (NDM-1); inhibitor 25 mg/L) | Meropenem MIC in the presence of inhibitor (E. coli IR60 (NDM-1); inhibitor 50 mg/L) | Meropenem MIC in the presence of inhibitor (E. coli IR60 (NDM-1); inhibitor 100 mg/L) | Meropenem MIC in the presence of inhibitor (E. coli MG1655 (IMP-1); inhibitor 10 mg/L) | Meropenem MIC in the presence of inhibitor (E. coli MG1655 (IMP-1); inhibitor 25 mg/L) | Meropenem MIC in the presence of inhibitor (E. coli MG1655 (IMP-1); inhibitor 50 mg/L) | Meropenem MIC in the presence of inhibitor (E. coli MG1655 (IMP-1); inhibitor 100 mg/L) | Meropenem MIC in the presence of inhibitor ([1]; inhibitor 10 mg/L) | Meropenem MIC in the presence of inhibitor ([1]; inhibitor 25 mg/L) | Meropenem MIC in the presence of inhibitor ([1]; inhibitor 50 mg/L) | Meropenem MIC in the presence of inhibitor ([1]; inhibitor 100 mg/L) | Meropenem MIC in the presence of inhibitor ([2]; inhibitor 10 mg/L) | Meropenem MIC in the presence of inhibitor ([2]; inhibitor 25 mg/L) | Meropenem MIC in the presence of inhibitor ([2]; inhibitor 50 mg/L) | Meropenem MIC in the presence of inhibitor ([3]; inhibitor 10 mg/L) | Meropenem MIC in the presence of inhibitor ([3]; inhibitor 25 mg/L) | Meropenem MIC in the presence of inhibitor ([3]; inhibitor 50 mg/L) | Inhibition verdict (PBP6 (dacC) from E. coli) | remaining activity at 100 µM (PBP6 (dacC) from E. coli) | also measured
1 | CN1CCN(NC(=O)CN2C(=O)C(=Cc3c(Cl)ccc(Cl)c3Cl)SC2=S)CC1 (mixture of isomers) [ML302, N-(4-Methylpiperazin-1-yl)-2-(4-oxo-2-thioxo-5-(2,3,6-trichlorobenzylidene)thiazolidin-3-yl)acetamide] | 8 µg/mL | 8 µg/mL | 4 µg/mL | 2 µg/mL | 0.5 µg/mL | ≤ 0.25 µg/mL | ≤ 0.25 µg/mL | ≤ 0.25 µg/mL | 32 µg/mL | 8 µg/mL | 4 µg/mL | 4 µg/mL | 0.5 µg/mL | ≤ 0.25 µg/mL | ≤ 0.25 µg/mL | ≤ 0.25 µg/mL | ≤ 0.25 µg/mL | ≤ 0.25 µg/mL | N.I. | 97.7 ± 3.8% | Inhibition verdict (hHDAC): N.I.; RA (residual activity) (hHDAC): 108 ± 3%; Inhibition verdict (hGlyoxylase II): N.I.; RA (residual activity) (hGlyoxylase II): 98 ± 3%
2 | O=C(O)C(S)=Cc1c(Cl)ccc(Cl)c1Cl (racemic) [ML302F, 2-Mercapto-3-(2,3,6-trichlorophenyl)acrylic acid] | 16 µg/mL | 16 µg/mL | 8 µg/mL | 8 µg/mL | 4 µg/mL | 4 µg/mL | 2 µg/mL | 0.5 µg/mL | 64 µg/mL | 32 µg/mL | 32 µg/mL | 16 µg/mL | 2 µg/mL | 1 µg/mL | 0.5 µg/mL | 4 µg/mL | 0.5 µg/mL | 0.5 µg/mL | N.I. | 114% | Inhibition verdict (hHDAC): N.I.; RA (residual activity) (hHDAC): 116 ± 7%; Inhibition verdict (hGlyoxylase II): N.I.; RA (residual activity) (hGlyoxylase II): 95 ± 6%
3 | C[C@@H](O)[C@H]1C(=O)N2C(C(=O)O)=C(S[C@@H]3CN[C@H](C(=O)N(C)C)C3)[C@H](C)[C@H]12 [Meropenem, meropenem] |  |  |  |  |  |  |  |  |  |  |  |  |  |  |  |  |  |  |  |  | MIC (E. coli IR60 (NDM-1); Escherichia coli, read-out: Meropenem MIC in the absence of inhibitor): 16 µg/mL; MIC (E. coli MG1655 (IMP-1); Escherichia coli, MG1655, read-out: Meropenem MIC in the absence of inhibitor): 32 µg/mL; MIC [1, 4]: 128 µg/mL; MIC [2, 4]: 16 µg/mL; MIC ([3]; Klebsiella pneumoniae, NCTC5055, read-out: Meropenem MIC in the absence of inhibitor): 32 µg/mL
